Experimental data as given in article PMC4688937, “Heterologous expression of the isopimaric acid pathway in Nicotiana benthamiana and the effect of N-terminal modifications of the involved cytochrome P450 enzyme” (Journal of Biological Engineering, 2015).

Key:
[1] = molecular target: T1, CYP720B4 (Picea sitchensis, UniProt E5FA70); assay: co-expression with diTPS-ISO in N. benthamiana leaves, GC-MS and LC-MS; settings: in planta, endogenous redox partner
T1 construct: ER; 55 kDa

[2] = molecular target: T2, Tp-Barnes-CYP720B4 (Picea sitchensis, UniProt E5FA70, DEL3-9/V13A, form not given); assay: co-expression with diTPS-ISO, DXS and GGPPs in N. benthamiana leaves, GC-FID and LC-MS; settings: in planta, chloroplast-targeted enzyme
T2 construct: Barnes-modified N-terminus preceded by transit peptide (N-terminal 52 residues of Arabidopsis thaliana ferredoxin FedA, GenBank AY128936), partly processed; FLAG tag; chloroplast-targeted in Nicotiana benthamiana leaves; 60 kDa precursor

[3] = molecular target: T3, ΔTm-CYP720B4 (Picea sitchensis, UniProt E5FA70); assay: as above; settings: in planta, endogenous redox partner
T3 construct: N-terminal membrane domain (first 37 amino acids) removed, new start Met from primer, FLAG tag, expressed in Nicotiana benthamiana leaves; 51 kDa

[4] = molecular target: T4, diTPS-ISO (Picea abies, UniProt Q675L5); assay: transient expression in N. benthamiana leaves, product by GC-MS; settings: endogenous GGPP in leaves, in planta; cyclisation to isopimaradiene
T4 construct: gene TPS-ISO; C-terminal FLAG tag, pEAQ-HT, transiently expressed in Nicotiana benthamiana leaves; own plastid targeting; 92 kDa
T4 sequence (Q675L5 69-867): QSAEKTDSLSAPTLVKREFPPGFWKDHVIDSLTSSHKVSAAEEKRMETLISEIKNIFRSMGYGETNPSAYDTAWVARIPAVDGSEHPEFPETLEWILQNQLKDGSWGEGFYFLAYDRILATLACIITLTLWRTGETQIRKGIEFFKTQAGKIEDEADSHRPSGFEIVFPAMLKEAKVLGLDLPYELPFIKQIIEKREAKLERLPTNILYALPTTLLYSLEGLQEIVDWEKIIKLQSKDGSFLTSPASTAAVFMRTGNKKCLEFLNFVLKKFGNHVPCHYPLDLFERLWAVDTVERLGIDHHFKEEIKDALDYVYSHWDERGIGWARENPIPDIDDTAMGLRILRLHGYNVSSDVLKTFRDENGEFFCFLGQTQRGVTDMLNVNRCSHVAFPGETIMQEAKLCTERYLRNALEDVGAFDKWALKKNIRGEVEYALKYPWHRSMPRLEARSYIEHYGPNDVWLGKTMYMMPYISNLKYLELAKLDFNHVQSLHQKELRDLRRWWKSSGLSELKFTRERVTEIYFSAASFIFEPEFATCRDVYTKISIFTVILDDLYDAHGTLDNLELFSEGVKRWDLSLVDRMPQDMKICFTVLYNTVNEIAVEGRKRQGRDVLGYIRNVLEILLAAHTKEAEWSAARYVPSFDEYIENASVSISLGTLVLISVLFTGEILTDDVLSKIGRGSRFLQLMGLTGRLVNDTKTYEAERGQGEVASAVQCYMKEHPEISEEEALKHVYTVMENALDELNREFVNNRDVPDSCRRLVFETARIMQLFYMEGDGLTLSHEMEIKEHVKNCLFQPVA

[5] = molecular target: T5, Barnes-CYP720B4 (Picea sitchensis, UniProt E5FA70, DEL3-9/V13A, form not given); assay: co-expression with diTPS-ISO, DXS and GGPPs in N. benthamiana leaves, GC-FID and LC-MS; settings: in planta, endogenous redox partner
T5 construct: Barnes-modified N-terminus (text: residues 3-9 deleted, V13A); 54 kDa
T5 sequence (E5FA70 entry or part of it DEL3-9/V13A, form open): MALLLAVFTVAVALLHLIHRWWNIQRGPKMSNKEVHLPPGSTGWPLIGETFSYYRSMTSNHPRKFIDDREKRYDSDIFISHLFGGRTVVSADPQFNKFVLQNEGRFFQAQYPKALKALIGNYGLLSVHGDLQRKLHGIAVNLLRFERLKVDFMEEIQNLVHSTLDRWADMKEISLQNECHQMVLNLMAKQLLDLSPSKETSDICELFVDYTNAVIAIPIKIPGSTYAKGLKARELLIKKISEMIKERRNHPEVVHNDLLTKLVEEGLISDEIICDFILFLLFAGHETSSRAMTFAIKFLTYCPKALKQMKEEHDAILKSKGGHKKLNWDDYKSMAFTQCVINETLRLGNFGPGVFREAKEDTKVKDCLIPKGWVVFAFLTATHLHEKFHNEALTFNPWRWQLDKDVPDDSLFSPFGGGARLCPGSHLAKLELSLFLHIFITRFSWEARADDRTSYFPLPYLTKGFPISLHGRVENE

T1 sequence (E5FA70 entry or part of it): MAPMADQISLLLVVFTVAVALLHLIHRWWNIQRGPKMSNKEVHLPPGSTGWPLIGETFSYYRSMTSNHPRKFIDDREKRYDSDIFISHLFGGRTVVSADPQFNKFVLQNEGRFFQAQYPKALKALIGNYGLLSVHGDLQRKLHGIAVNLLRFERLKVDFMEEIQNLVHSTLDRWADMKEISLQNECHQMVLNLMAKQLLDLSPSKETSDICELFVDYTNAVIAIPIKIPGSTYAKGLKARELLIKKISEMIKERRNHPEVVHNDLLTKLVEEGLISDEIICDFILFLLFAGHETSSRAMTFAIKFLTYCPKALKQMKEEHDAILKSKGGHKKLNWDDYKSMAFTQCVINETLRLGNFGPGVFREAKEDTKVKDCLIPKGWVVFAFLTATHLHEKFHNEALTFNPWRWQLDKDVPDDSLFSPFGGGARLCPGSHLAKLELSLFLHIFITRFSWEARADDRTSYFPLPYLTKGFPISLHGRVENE
T2 sequence (E5FA70 entry or part of it DEL3-9/V13A, form open): as the sequence (E5FA70 entry or part of it DEL3-9/V13A, form open) above
T3 sequence (E5FA70 entry or part of it, stated change not applied): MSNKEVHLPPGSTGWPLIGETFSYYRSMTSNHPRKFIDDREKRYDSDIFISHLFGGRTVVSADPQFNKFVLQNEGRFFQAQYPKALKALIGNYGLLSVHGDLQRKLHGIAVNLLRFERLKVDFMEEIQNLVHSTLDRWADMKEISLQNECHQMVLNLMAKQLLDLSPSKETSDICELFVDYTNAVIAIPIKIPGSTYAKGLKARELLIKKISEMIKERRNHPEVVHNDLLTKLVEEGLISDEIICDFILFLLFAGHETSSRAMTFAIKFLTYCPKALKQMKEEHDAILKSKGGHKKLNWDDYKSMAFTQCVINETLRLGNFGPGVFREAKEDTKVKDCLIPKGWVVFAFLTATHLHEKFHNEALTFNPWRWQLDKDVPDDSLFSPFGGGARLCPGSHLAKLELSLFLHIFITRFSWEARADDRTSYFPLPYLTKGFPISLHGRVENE

SMILES | co-expression with diTPS-ISO in N. benthamiana leaves, GC-MS and LC-MS [1] | co-expression with diTPS-ISO, DXS and GGPPs in N. benthamiana leaves, GC-FID and [2] | co-expression with diTPS-ISO, DXS and GGPPs in N. benthamiana leaves, GC-FID and [3] | transient expression in N. benthamiana leaves, product by GC-MS [4] | co-expression with diTPS-ISO, DXS and GGPPs in N. benthamiana leaves, GC-FID and [5]
C=C[C@@]1(C)CC[C@H]2C(=CC[C@@H]3[C@]2(C)CCC[C@@]3(C)C(=O)O)C1 [isopimaric acid] | isopimaradiene was depleted and isopimaric acid accumulated (Fig. 2c, d), indicating efficient conversion | – | – | – | –
C=C[C@@]1(C)CC[C@H]2C(=CC[C@H]3C(C)(C)CCC[C@]23C)C1 [isopimaradiene] | Upon co-expression with CYP720B4, isopimaradiene was depleted and isopimaric acid accumulated | In contrast, the Tp-Barnes-CYP720B4 was active | CYP720B4 remains active even after complete removal of the transmembrane domain | active as confirmed by the formation of isopimaradiene in the infiltrated leaves | Barnes-CYP720B4 activity does not seem to deteriorate after the N-terminal modification
CC(C)=CCC/C(C)=C/CC/C(C)=C/CC/C(C)=C/COP(=O)(O)OP(=O)(O)O [GGPP] | – | – | – | The expressed diTPS-ISO is active as confirmed by the formation of isopimaradiene | –
